Experimental data from ChEMBL document CHEMBL1142453, “Imidazoles: SAR and development of a potent class of cyclin-dependent kinase inhibitors” (Bioorg Med Chem Lett, 2008).
pIC50: −log10 of the molar value. ≈ marks a conversion by molar mass, not a printed value.

Key:
G1/S-specific cyclin-E1 = G1/S-specific cyclin-E1 (Homo sapiens, UniProt P24864); assay: Inhibition of Cyclin E/CDK2
[1] = target: G2/mitotic-specific cyclin-B1 (Homo sapiens, UniProt P14635); assay: Inhibition of Cyclin B1/CDK1
G1/S-specific cyclin-D3 = target: T1, G1/S-specific cyclin-D3 (Homo sapiens, UniProt P30281); assay: Inhibition of Cyclin D3/CDK6
T1 sequence (P30281 whole entry): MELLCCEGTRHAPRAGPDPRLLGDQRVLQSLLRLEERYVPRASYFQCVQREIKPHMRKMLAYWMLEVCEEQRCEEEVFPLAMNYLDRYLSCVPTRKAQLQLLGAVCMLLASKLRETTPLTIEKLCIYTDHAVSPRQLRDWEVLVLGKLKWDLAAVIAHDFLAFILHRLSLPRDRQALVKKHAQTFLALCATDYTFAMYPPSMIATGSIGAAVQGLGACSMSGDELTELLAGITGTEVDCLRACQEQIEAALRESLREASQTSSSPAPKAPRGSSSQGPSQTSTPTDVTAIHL

[2] = Lipophilicity, log D at pH 7.4; settings: buffer
[3] = Fraction unbound in rat serum; type: ADME, cell-free
[4] = Volume of distribution at steady state in mouse at 5.5 mg/kg, iv; type: ADME, organism-based; parameters: dose 5.5 mg/kg, route intravenous; settings: in vivo, read-out: Vdss
[5] = Clearance in mouse at 5.5 mg/kg, iv; type: ADME, organism-based; parameters: dose 5.5 mg/kg, route intravenous; settings: in vivo
[6] = AUC (0 to t) in mouse at 10 mg/kg, po; type: ADME, organism-based; parameters: dose 10 mg/kg, route oral; settings: plasma
[7] = Cmax in mouse at 10 mg/kg, po; type: ADME, organism-based; parameters: dose 10 mg/kg, route oral; settings: in vivo
[8] = Tmax in mouse at 10 mg/kg, po; type: ADME, organism-based; parameters: dose 10 mg/kg, route oral; settings: in vivo
[9] = Oral bioavailability in mouse at 10 mg/kg; type: ADME, organism-based; settings: in vivo
LoVo = assay: Antiproliferative activity against human LoVo cells assessed as BrdU incorporation after 48 hrs; type: functional, cell-based
physchem = settings: buffer, pH 7.4
[10] = target: Cyclin-dependent kinase 2 (Homo sapiens, UniProt P24941); assay: Inhibition of CDK2
[11] = target: Cyclin-dependent kinase 4 (Homo sapiens, UniProt P11802); assay: Inhibition of CDK4
Cyclin-dependent kinase 4, sequence (P11802 whole entry): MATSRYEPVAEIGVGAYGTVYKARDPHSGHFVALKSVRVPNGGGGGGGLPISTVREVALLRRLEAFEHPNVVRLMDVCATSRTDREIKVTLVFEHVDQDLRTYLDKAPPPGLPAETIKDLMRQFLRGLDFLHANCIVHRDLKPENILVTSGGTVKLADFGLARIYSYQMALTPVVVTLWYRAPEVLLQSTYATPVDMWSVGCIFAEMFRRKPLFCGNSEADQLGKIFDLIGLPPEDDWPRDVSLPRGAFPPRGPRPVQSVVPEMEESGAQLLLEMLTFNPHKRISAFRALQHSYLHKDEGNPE

MCF7 = assay: Antiproliferative activity against human MCF7 cells assessed as BrdU incorporation after 48 hrs; type: functional, cell-based; settings: MCF7, 48 h

G1/S-specific cyclin-E1, sequence (P24864 whole entry): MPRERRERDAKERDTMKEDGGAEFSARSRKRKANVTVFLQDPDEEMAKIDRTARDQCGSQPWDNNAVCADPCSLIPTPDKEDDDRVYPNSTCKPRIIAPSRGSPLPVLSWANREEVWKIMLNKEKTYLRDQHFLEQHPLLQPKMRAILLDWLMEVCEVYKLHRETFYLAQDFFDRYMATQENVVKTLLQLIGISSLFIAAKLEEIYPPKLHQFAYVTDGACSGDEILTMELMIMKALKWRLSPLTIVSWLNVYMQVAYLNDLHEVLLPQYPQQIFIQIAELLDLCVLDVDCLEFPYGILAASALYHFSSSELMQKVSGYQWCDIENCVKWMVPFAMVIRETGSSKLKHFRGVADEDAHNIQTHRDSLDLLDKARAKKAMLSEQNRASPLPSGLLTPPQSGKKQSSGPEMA
G2/mitotic-specific cyclin-B1, sequence (P14635 whole entry): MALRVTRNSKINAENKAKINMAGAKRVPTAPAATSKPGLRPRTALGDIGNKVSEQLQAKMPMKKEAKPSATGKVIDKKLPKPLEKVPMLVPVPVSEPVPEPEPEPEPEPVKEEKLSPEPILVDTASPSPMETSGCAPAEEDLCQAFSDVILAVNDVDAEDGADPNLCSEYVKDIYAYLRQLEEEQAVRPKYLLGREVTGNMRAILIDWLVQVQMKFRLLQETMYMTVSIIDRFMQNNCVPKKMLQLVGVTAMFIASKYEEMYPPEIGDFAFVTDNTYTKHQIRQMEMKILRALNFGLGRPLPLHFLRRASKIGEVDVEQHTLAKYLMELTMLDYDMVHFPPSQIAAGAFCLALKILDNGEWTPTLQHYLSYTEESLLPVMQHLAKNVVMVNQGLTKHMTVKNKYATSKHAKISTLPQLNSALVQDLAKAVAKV

SMILES | pIC50 (LoVo) | pIC50 [10] | pIC50 [11] | pIC50 (MCF7) | other results
Cc1ncc(-c2ccnc(Nc3ccc(S(C)(=O)=O)cc3)n2)n1C(C)C [AZD-5438] | 6.20 |  |  |  | pIC50 (G1/S-specific cyclin-E1): 8.22; pIC50 [1]: 7.80; pIC50 (G1/S-specific cyclin-D3): 7.68; logD [2]: 2.4; fraction unbound [3]: 0.087; Vd [4]: 1.01 L/kg; clearance [5]: 21.8 mL/min/kg; AUC(0-t) [6]: 18.7 µM·h; Cmax [7]: 6.4 µM; Tmax [8]: 19.8 min; bioavailability [9]: 91%; solubility (physchem): 218 µM (≈ 81 µg/mL)
Cc1ncc(-c2ccnc(Nc3ccc(S(=O)(=O)CCCN4CCOCC4)cc3)n2)n1C(C)C | 5.92 | 7.48 | 6.68 |  | 
Cc1ncc(-c2ccnc(Nc3ccc(S(=O)(=O)Cc4ccccc4)cc3)n2)n1C(C)C | 5.82 | 7.72 | 5.82 |  | 
CN(C)CCNS(=O)(=O)c1ccc(Nc2nccc(-c3cnc4ccccn34)n2)cc1 |  |  |  |  | logD [2]: 2.7; fraction unbound [3]: 0.03; solubility (physchem): 31 µM (≈ 13.6 µg/mL)
CN(C)CCNS(=O)(=O)c1ccc(Nc2nccc(-c3cnc4cccnn34)n2)cc1 |  |  |  | 6.59 | 
COCCNS(=O)(=O)c1ccc(Nc2nccc(-c3cnc(C)n3C3CCCC3)n2)cc1 | 6.21 | > 8.52 |  |  | 
Cc1ncc(-c2ccnc(Nc3ccc(S(=O)(=O)CC4CCCO4)cc3)n2)n1C(C)C (stereo not drawn) | 5.92 | 7.89 | 6.28 |  | 
Cc1ncc(-c2ccnc(Nc3ccc(S(=O)(=O)NCCN(C)C)cc3)n2)n1C |  | 7.60 |  | 6.31 | 
CN(C)CCCNS(=O)(=O)c1ccc(Nc2nccc(-c3cnc4cccnn34)n2)cc1 |  |  |  |  | logD [2]: 1.4; fraction unbound [3]: 0.148; solubility (physchem): 160 µM (≈ 72.4 µg/mL)
Cc1ncc(-c2ccnc(Nc3ccc(S(=O)(=O)CCCN(C)C)cc3)n2)n1C(C)C | 6.05 | 7.44 | 6.85 |  | logD [2]: 1.3; fraction unbound [3]: 0.32; solubility (physchem): > 6800 µM
CCn1c(-c2ccnc(Nc3ccc(S(C)(=O)=O)cc3)n2)cnc1C |  | 7.64 |  |  | 
Cc1ncc(-c2ccnc(Nc3ccc(S(N)(=O)=O)cc3)n2)n1C |  | 7.96 |  | 6.06 | 
Cc1ncc(-c2ccnc(Nc3ccc(S(=O)(=O)NCCCOC(C)C)cc3)n2)n1C |  | 8.22 |  | 6.49 | 
CNS(=O)(=O)c1ccc(Nc2nccc(-c3cnc4cccnn34)n2)cc1 |  | > 8.52 |  | 6.25 | 
CNS(=O)(=O)c1ccc(Nc2nccc(-c3cnc(C)n3C)n2)cc1 |  | > 8.52 |  | 6.30 | 
NS(=O)(=O)c1ccc(Nc2nccc(-c3cnc4ccccn34)n2)cc1 |  | 8.70 |  | 6.59 | logD [2]: 2.7; fraction unbound [3]: 0.001; solubility (physchem): 6.5 µM (≈ 2.38 µg/mL)
CCn1c(-c2ccnc(Nc3ccc(S(=O)(=O)NCCOC)cc3)n2)cnc1C | 5.82 | 8.40 | 5.89 |  | fraction unbound [3]: 0.014
COCCNS(=O)(=O)c1ccc(Nc2nccc(-c3cnc4ccccn34)n2)cc1 |  | > 7.92 |  | 6.40 | 
COCCS(=O)(=O)c1ccc(Nc2nccc(-c3cnc(C)n3C(C)C)n2)cc1 | 6.16 | 7.85 | 6.31 |  | 
COCCNS(=O)(=O)c1ccc(Nc2nccc(-c3cnc4cccnn34)n2)cc1 |  |  |  |  | fraction unbound [3]: 0.008
COCCNS(=O)(=O)c1ccc(Nc2nccc(-c3cnc(C)n3C)n2)cc1 | 5.40 | 8.10 | 5.25 | 6.21 | 
COCCNS(=O)(=O)c1ccc(Nc2nccc(-c3c(C)nc(C)n3C)n2)cc1 | 5.04 | 7.17 | < 5.07 |  | 
COCCN(C)S(=O)(=O)c1ccc(Nc2nccc(-c3cnc(C)n3C)n2)cc1 |  | 6.40 |  |  | 
CCCS(=O)(=O)c1ccc(Nc2nccc(-c3cnc(C)n3C(C)C)n2)cc1 | 5.74 | 8.10 |  |  | 
COCCNS(=O)(=O)c1ccc(Nc2nccc(-c3cnc(C)n3C(C)C)n2)cc1 | 6.51 |  | 6.70 |  | 
COCCNS(=O)(=O)c1ccc(Nc2nccc(-c3cnc(C)n3CC(C)C)n2)cc1 | 5.74 | 7.82 |  |  | 
Cc1ncc(-c2ccnc(Nc3ccc(S(=O)(=O)CCCN(C)C)cc3)n2)n1C |  | 6.53 |  |  | 
